# Assays:
# Assay type in all cases: cell-based
# [1] = tested on: Escherichia coli IFO 12734; experiment: Inhibition of growth of Escherichia coli in liquid culture (absorbance at 600 nm); details: 37° C., 2 hours
# [2] = tested on: Escherichia coli IFO 12734; experiment: Antibiotic-potentiating activity, paper disc growth inhibition zone, Escherichia coli IFO 12734
# Description: The potency of the compound of the formula (II) can be determined, for instance, by the cup method or paper disc method using bouillon agar containing 0.05 μg/ml of cefmenoxime with Escherichia coli IFO 12734 as the test organism. […]
# (§1) *The test was performed using a bouillon agar medium containing the
# antibiotic as specified and a paper disc, 8 mm in diameter.
# **A paper disc, 8 mm in diameter, was impregnated with 25 μl of the […]
# Escherichia coli = experiment: Observation of the culture broths under a phase contrast microscope; details: in the presence of cephalexin or cefmenoxime
# Description: (§2) To 8 ml of YAB medium (1.75% Difco antibiotic medium No. 3, 0.5% Difco yeast extract) containing 12% (w/v) of sucrose, there were added 1 ml of water, 50 μg/ml cephalexin solution or 10 μg/ml cefmenoxime solution, and the medium was inoculated with 1 ml of a preculture in YAB medium at an early logarithmic growth phase and incubated with shaking at 37° C. for 2 hours. Thereafter, the absorbance of the culture broth was measured at 600 nm using a Shimadzu-Bausch & Lomb Spectronic 20 colorimeter.
# [3] = tested on: Proteus mirabilis ATCC 21100; experiment: Antibiotic-potentiating activity, paper disc growth inhibition zone, Proteus mirabilis ATCC 21100
# Description: as §1
# antibiotic as specified and a paper disc, 8 mm in diameter. […]
# *The test was performed under the same conditions as noted for Table 1
# except for the test organism and the concentration of each coexisting
# [4] = tested on: Escherichia coli IFO 12734; experiment: Inhibition of growth of Escherichia coli in liquid culture (absorbance at 600 nm); details: for Absorbance at 600 nm: 37° C., 2 hours
# Description: Table 5: Inhibition of growth of Escherichia coli IFO 12734 in the copresence of F2 (obtained in Example 1) and cephalexin or cefmenoxime.
# as §2
# [5] = F2 of Example 1, 1 μg/ml in test solution, no addition
# [6] = F2 of Example 1, 5 μg/ml in test solution, no addition
# [7] = F2 of Example 1, 25 μg/ml in test solution, no addition
# [8] = F2 of Example 1, 125 μg/ml in test solution, no addition
# [9] = F2 of Example 1, 1000 μg/ml in test solution, no addition
# [10] = F2 of Example 3, 1 μg/ml in test solution, no addition
# [11] = F2 of Example 3, 5 μg/ml in test solution, no addition
# [12] = F2 of Example 3, 25 μg/ml in test solution, no addition
# [13] = F2 of Example 3, 125 μg/ml in test solution, no addition
# [14] = F2 of Example 3, 1000 μg/ml in test solution, no addition
structure (smiles),measurement,setting,value
CC(=O)NC1C(OC2CC(C(=O)NCCS(=O)(=O)O)NC2CO)OC(CO)C(OS(=O)(=O)O)C1O (stereo not drawn) [F2],Absorbance at 600 nm,"[1]; final F2 (Example 1) 10 μg/ml, 1 μg/ml cefmenoxime",0.25
same,Absorbance at 600 nm,"[1]; final F2 (Example 1) 10 μg/ml, 5 μg/ml cephalexin",1.00
same,Absorbance at 600 nm,"[1]; final F2 (Example 1) 100 μg/ml, 1 μg/ml cefmenoxime",0.30
same,Absorbance at 600 nm,"[1]; final F2 (Example 1) 100 μg/ml, 5 μg/ml cephalexin",0.95
same,Absorbance at 600 nm,"[1]; final F2 (Example 1) 100 μg/ml, no addition",2.70
same,Absorbance at 600 nm,"[1]; final F2 (Example 3) 1 μg/ml, 1 μg/ml cefmenoxime",0.55
same,Absorbance at 600 nm,"[1]; final F2 (Example 3) 1 μg/ml, 5 μg/ml cephalexin",1.75
same,Absorbance at 600 nm,"[1]; final F2 (Example 3) 1 μg/ml, no addition",2.45
same,Absorbance at 600 nm,"[1]; final F2 (Example 3) 10 μg/ml, 1 μg/ml cefmenoxime",0.25
same,Absorbance at 600 nm,"[1]; final F2 (Example 3) 10 μg/ml, 5 μg/ml cephalexin",1.90
same,Absorbance at 600 nm,"[1]; final F2 (Example 3) 10 μg/ml, no addition",2.50
same,Absorbance at 600 nm,"[1]; final F2 (Example 3) 100 μg/ml, 1 μg/ml cefmenoxime",0.25
same,Absorbance at 600 nm,"[1]; final F2 (Example 3) 100 μg/ml, 5 μg/ml cephalexin",0.75
same,Absorbance at 600 nm,"[1]; final F2 (Example 3) 100 μg/ml, no addition",2.55
same,Diameter of growth inhibition zone,"[2]; F2 of Example 1, 1 μg/ml in test solution, 0.03 μg/ml mecillinam",< 8 mm
same,Diameter of growth inhibition zone,"[2]; F2 of Example 1, 1 μg/ml in test solution, 0.05 μg/ml cefmenoxime",10 mm
same,Diameter of growth inhibition zone,[2]; [5],< 8 mm
same,Diameter of growth inhibition zone,"[2]; F2 of Example 1, 5 μg/ml in test solution, 0.03 μg/ml mecillinam",10 mm
same,Diameter of growth inhibition zone,"[2]; F2 of Example 1, 5 μg/ml in test solution, 0.05 μg/ml cefmenoxime",15 mm
same,Diameter of growth inhibition zone,[2]; [6],< 8 mm
same,Diameter of growth inhibition zone,"[2]; F2 of Example 1, 25 μg/ml in test solution, 0.03 μg/ml mecillinam",18 mm
same,Diameter of growth inhibition zone,"[2]; F2 of Example 1, 25 μg/ml in test solution, 0.05 μg/ml cefmenoxime",24 mm
same,Diameter of growth inhibition zone,[2]; [7],< 8 mm
same,Diameter of growth inhibition zone,"[2]; F2 of Example 1, 125 μg/ml in test solution, 0.03 μg/ml mecillinam",24 mm
same,Diameter of growth inhibition zone,"[2]; F2 of Example 1, 125 μg/ml in test solution, 0.05 μg/ml cefmenoxime",32 mm
same,Diameter of growth inhibition zone,[2]; [8],< 8 mm
same,Diameter of growth inhibition zone,"[2]; F2 of Example 1, 1000 μg/ml in test solution, 0.03 μg/ml mecillinam",30 mm
same,Diameter of growth inhibition zone,"[2]; F2 of Example 1, 1000 μg/ml in test solution, 0.05 μg/ml cefmenoxime",40 mm
same,Diameter of growth inhibition zone,[2]; [9],< 8 mm
same,Diameter of growth inhibition zone,"[2]; F2 of Example 3, 1 μg/ml in test solution, 0.03 μg/ml mecillinam",< 8 mm
same,Diameter of growth inhibition zone,"[2]; F2 of Example 3, 1 μg/ml in test solution, 0.05 μg/ml cefmenoxime",9 mm
same,Diameter of growth inhibition zone,[2]; [10],< 8 mm
same,Diameter of growth inhibition zone,"[2]; F2 of Example 3, 5 μg/ml in test solution, 0.03 μg/ml mecillinam",9 mm
same,Diameter of growth inhibition zone,"[2]; F2 of Example 3, 5 μg/ml in test solution, 0.05 μg/ml cefmenoxime",14 mm
same,Diameter of growth inhibition zone,[2]; [11],< 8 mm
same,Diameter of growth inhibition zone,"[2]; F2 of Example 3, 25 μg/ml in test solution, 0.03 μg/ml mecillinam",19 mm
same,Diameter of growth inhibition zone,"[2]; F2 of Example 3, 25 μg/ml in test solution, 0.05 μg/ml cefmenoxime",23 mm
same,Diameter of growth inhibition zone,[2]; [12],< 8 mm
same,Diameter of growth inhibition zone,"[2]; F2 of Example 3, 125 μg/ml in test solution, 0.03 μg/ml mecillinam",23 mm
same,Diameter of growth inhibition zone,"[2]; F2 of Example 3, 125 μg/ml in test solution, 0.05 μg/ml cefmenoxime",31 mm
same,Diameter of growth inhibition zone,[2]; [13],< 8 mm
same,Diameter of growth inhibition zone,"[2]; F2 of Example 3, 1000 μg/ml in test solution, 0.03 μg/ml mecillinam",29 mm
same,Diameter of growth inhibition zone,"[2]; F2 of Example 3, 1000 μg/ml in test solution, 0.05 μg/ml cefmenoxime",39 mm
same,Diameter of growth inhibition zone,[2]; [14],< 8 mm
same,Swelling and bacteriolysis under phase contrast microscope,Escherichia coli,partial swelling occurred and bacteriolysis proceeded
same,Elongation of cells under phase contrast microscope,Escherichia coli; in dependence on the addition level,elongation was inhibited
same,Diameter of growth inhibition zone,"[3]; F2 of Example 1, 1 μg/ml in test solution, 0.01 μg/ml cefmenoxime",9 mm
same,Diameter of growth inhibition zone,"[3]; F2 of Example 1, 1 μg/ml in test solution, 0.05 μg/ml mecillinam",9 mm
same,Diameter of growth inhibition zone,[3]; [5],< 8 mm
same,Diameter of growth inhibition zone,"[3]; F2 of Example 1, 5 μg/ml in test solution, 0.01 μg/ml cefmenoxime",13 mm
same,Diameter of growth inhibition zone,"[3]; F2 of Example 1, 5 μg/ml in test solution, 0.05 μg/ml mecillinam",11 mm
same,Diameter of growth inhibition zone,[3]; [6],< 8 mm
same,Diameter of growth inhibition zone,"[3]; F2 of Example 1, 25 μg/ml in test solution, 0.01 μg/ml cefmenoxime",23 mm
same,Diameter of growth inhibition zone,"[3]; F2 of Example 1, 25 μg/ml in test solution, 0.05 μg/ml mecillinam",19 mm
same,Diameter of growth inhibition zone,[3]; [7],< 8 mm
same,Diameter of growth inhibition zone,"[3]; F2 of Example 1, 125 μg/ml in test solution, 0.01 μg/ml cefmenoxime",30 mm
same,Diameter of growth inhibition zone,"[3]; F2 of Example 1, 125 μg/ml in test solution, 0.05 μg/ml mecillinam",26 mm
same,Diameter of growth inhibition zone,[3]; [8],< 8 mm
same,Diameter of growth inhibition zone,"[3]; F2 of Example 1, 1000 μg/ml in test solution, 0.01 μg/ml cefmenoxime",38 mm
same,Diameter of growth inhibition zone,"[3]; F2 of Example 1, 1000 μg/ml in test solution, 0.05 μg/ml mecillinam",32 mm
same,Diameter of growth inhibition zone,[3]; [9],< 8 mm
same,Diameter of growth inhibition zone,"[3]; F2 of Example 3, 1 μg/ml in test solution, 0.01 μg/ml cefmenoxime",9 mm
same,Diameter of growth inhibition zone,"[3]; F2 of Example 3, 1 μg/ml in test solution, 0.05 μg/ml mecillinam",9 mm
same,Diameter of growth inhibition zone,[3]; [10],< 8 mm
same,Diameter of growth inhibition zone,"[3]; F2 of Example 3, 5 μg/ml in test solution, 0.01 μg/ml cefmenoxime",12 mm
same,Diameter of growth inhibition zone,"[3]; F2 of Example 3, 5 μg/ml in test solution, 0.05 μg/ml mecillinam",12 mm
same,Diameter of growth inhibition zone,[3]; [11],< 8 mm
same,Diameter of growth inhibition zone,"[3]; F2 of Example 3, 25 μg/ml in test solution, 0.01 μg/ml cefmenoxime",22 mm
same,Diameter of growth inhibition zone,"[3]; F2 of Example 3, 25 μg/ml in test solution, 0.05 μg/ml mecillinam",19 mm
same,Diameter of growth inhibition zone,[3]; [12],< 8 mm
same,Diameter of growth inhibition zone,"[3]; F2 of Example 3, 125 μg/ml in test solution, 0.01 μg/ml cefmenoxime",29 mm
same,Diameter of growth inhibition zone,"[3]; F2 of Example 3, 125 μg/ml in test solution, 0.05 μg/ml mecillinam",25 mm
same,Diameter of growth inhibition zone,[3]; [13],< 8 mm
same,Diameter of growth inhibition zone,"[3]; F2 of Example 3, 1000 μg/ml in test solution, 0.01 μg/ml cefmenoxime",38 mm
same,Diameter of growth inhibition zone,"[3]; F2 of Example 3, 1000 μg/ml in test solution, 0.05 μg/ml mecillinam",32 mm
same,Diameter of growth inhibition zone,[3]; [14],< 8 mm
same,Absorbance at 600 nm,"[4]; final F2 (Example 1) 1 μg/ml, 1 μg/ml cefmenoxime",0.60
same,Absorbance at 600 nm,"[4]; final F2 (Example 1) 1 μg/ml, 5 μg/ml cephalexin",1.80
same,Absorbance at 600 nm,"[4]; final F2 (Example 1) 1 μg/ml, no addition",2.65
same,Absorbance at 600 nm,"[4]; final F2 (Example 1) 10 μg/ml, no addition",2.65
same,Inhibition of growth of Escherichia coli,"[4]; in the presence of cephalexin or cefmenoxime, decrease in absorbance",inhibits the growth of Escherichia coli
